Results published in patent US8207321B2, “Method of obtaining idolocarbazoles using biosynthetic rebeccamycin genes” (Universidad De Oviedo, priority 2001, dated 2012).

Key:
[1] = test system: Streptococcus faecalis; conditions: cited from earlier work
[2] = test system: several tumor cell lines; conditions: cited from earlier work
[3] = test system: S. albus J1074/14E8; test: Paper disc growth inhibition by exogenously added rebeccamycin, strain with cosmid 14E8; format: cell-based, Streptomyces albus; conditions: Bennett's agar, 28° C. for 4 days
Experimental: (§1) Therefore, cosmids 14E8 and 17A12, which conferred the ability to produce rebeccamycin, should also confer resistance to rebeccamycin. In order to confirm this point, we studied the effect of exogenously added rebeccamycin on the growth of S. albus J1074/14E8 and control strain S. albus J1074/pKC505. For this purpose, spores of each strain were used to inoculate plates of Bennett's agar (Kieser et al. Practical Streptomyces genetics, The John Innes Foundation, Norwich, UK, 2000) containing 25 μg/ml apramycin. Different amounts of rebeccamycin (dissolved in acetone) were added to paper discs placed on this pre-seeded medium. The plates were left at 4° C. for an hour to allow diffusion of the rebeccamycin solution, and then they were incubated at 28° C. for 4 days.

[4] = test system: S. albus J1074; test: Growth inhibition of Streptomyces spp.; format: cell-based, Streptomyces albus
[5] = test system: Micrococcus luteus; conditions: cited from earlier work
[6] = test system: S. albus J1074/pKC505; test: Paper disc growth inhibition by exogenously added rebeccamycin, control strain; format: cell-based, Streptomyces albus; conditions: 100 μg rebeccamycin on paper disc, Bennett's agar, 28° C. for 4 days
Experimental: as §1

[7] = test system: Staphylococcus aureus; conditions: cited from earlier work
[8] = test system: several tumors implanted in mice; conditions: cited from earlier work

Structure (SMILES): CO[C@H]1[C@H](O)[C@@H](O)[C@H](n2c3c(Cl)cccc3c3c4c(c5c6cccc(Cl)c6[nH]c5c32)C(=O)NC4=O)O[C@@H]1CO [Rebeccamycin]
- antibacterial activity [1]: antibacterial activity
- antitumor activity in vitro [2]: antitumor activity
- growth of S. albus J1074/14E8 ([3]; 100 μg rebeccamycin on paper disc): fully resistant
- growth of S. albus J1074/14E8 ([3]; 200 μg rebeccamycin on paper disc): fully resistant
- inhibition of growth of Streptomyces spp. including S. albus J1074 [4]: weak inhibition of growth
- antibacterial activity [5]: antibacterial activity
- growth of S. albus J1074/pKC505 [6]: totally inhibited
- antibacterial activity [7]: antibacterial activity
- antitumor activity in vivo [8]: antitumor activity
